Assay results taken from the supplement of paper PMC11208160.

Experiment: recombinant barcode read abundance after kanamycin selection (control-corrected) (log10(CPM+1)); higher = more efficient recombination; sequences stand for … in AGTGCAGAGAAAATCGGCCAGTTTTCTCTGCCTGCAGTCCGCATGCCGT…AGATTTATGCAGCGGACTGCCTTTCTCCCAAAGTGATAAACCGGACAGTATCATGGACCGGTTTTCCCGGTAATCCGTATTTGCAAGGTTGGTTTCACT; site = the 11-nt target
Method in brief: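 In a pooled screen in E. coli, targets were paired with target-binding loops of the IS621 bridge RNA. Each oligo carried a promoter, a target, a barcode and the first 104 bridge RNA bases driven by J23119, and was Gibson-cloned into a vector holding the remaining 73 bp and a T7-inducible recombinase before co-electroporation with a donor plasmid. Duplicate platings went onto chloramphenicol/ampicillin LB agar as the control or onto chloramphenicol/ampicillin/kanamycin with 0.1 mM IPTG. Recombination efficiency is the averaged, control-corrected count per million of barcodes at recombinant junctions, given as log10(CPM+1).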
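Further: IS621 recombinase and bridge RNA in Escherichia coli cells.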

| Sequence | recombinant barcode read abundance (log10) |
| --- | --- |
| TCCAAGCCTTGGGTTCTAACCTGTTGCAG (site TCCAATCCTCT) | 0.39 |
| TCCAATCCTTGGGTTCTAACCTGTTGCAG (site TCCAAACCTCT) | 0.114 |
| TCCAATCCTTGGGTTCTAACCTGTTGCAG (site TCCAACCCTCT) | 0.0551 |
| TCCAATCCTTGGGTTCTAACCTGTTGCAG (site TCCAAGCCTCT) | 0.167 |
| TCCAATCCTTGGGTTCTAACCTGTTGCAG (site TCCAATCCTCT) | 0.381 |
| TCCACACCTTGGGTTCTAACCTGTTGCCT (site TCCACAACTAG) | 0.122 |
| TCCACACCTTGGGTTCTAACCTGTTGCCT (site TCCACACCTAG) | 0.63 |
| TCCACACCTTGGGTTCTAACCTGTTGCCT (site TCCACAGCTAG) | 0.0788 |
| TCCACACCTTGGGTTCTAACCTGTTGCCT (site TCCACATCTAG) | 0.0345 |
| TCCACAGCTTGGGTTCTAACCTGTTGCCT (site TCCACAACTAG) | 0 |
| TCCACAGCTTGGGTTCTAACCTGTTGCCT (site TCCACACCTAG) | 0.212 |
| TCCACAGCTTGGGTTCTAACCTGTTGCCT (site TCCACAGCTAG) | 0.784 |
| TCCACAGCTTGGGTTCTAACCTGTTGCCT (site TCCACATCTAG) | 0 |
| TCCAGCACTTGGGTTCTAACCTGTTGCCT (site TCCAGCACTAG) | 0.412 |
| TCCAGCACTTGGGTTCTAACCTGTTGCCT (site TCTGGCACTAG) | 0 |
| TCCAGTACTTGGGTTCTAACCTGTTGCTT (site TCCAGTACTAA) | 0.0786 |
| TCCAGTACTTGGGTTCTAACCTGTTGCTT (site TCCGGTACTAA) | 0.0788 |
| TCCATAACTTGGGTTCTAACCTGTTGCCT (site GGGGCGTCTCA) | 0.0285 |
| TCCATAACTTGGGTTCTAACCTGTTGCCT (site TCCATAACTAG) | 0.14 |
| TCCATCCCTTGGGTTCTAACCTGTTGCCT (site TCAATCCCTAG) | 0.00792 |
| TCCATCCCTTGGGTTCTAACCTGTTGCCT (site TCCATCCCTAG) | 0.613 |
| TCCATCCCTTGGGTTCTAACCTGTTGCCT (site TCGATCCCTAG) | 0.0154 |
| TCCATCCCTTGGGTTCTAACCTGTTGCCT (site TCTATCCCTAG) | 0.116 |
| TCCCACTCTTGGGTTCTAACCTGTTGCCT (site TCACACTCTAG) | 0.158 |
| TCCCACTCTTGGGTTCTAACCTGTTGCCT (site TCCCACTCTAG) | 1.56 |
| TCCCACTCTTGGGTTCTAACCTGTTGCCT (site TCGCACTCTAG) | 0.0564 |

| Sequence | recombinant barcode read abundance (log10) |
| --- | --- |
| TCCCACTCTTGGGTTCTAACCTGTTGCCT (site TCTCACTCTAG) | 0.0682 |
| TCCCAGTCTTGGGTTCTAACCTGTTGCTG (site TCCCAGTCTCA) | 0.635 |
| TCCCAGTCTTGGGTTCTAACCTGTTGCTG (site TCTCAGTCTCC) | 0.0317 |
| TCCCATACTTGGGTTCTAACCTGTTGCAT (site AGTGGACCTGG) | 0.2 |
| TCCCATACTTGGGTTCTAACCTGTTGCAT (site TCCCATACTAT) | 0.982 |
| TCCCATTCTTGGGTTCTAACCTGTTGCCT (site TCCCATACTAG) | 0.197 |
| TCCCATTCTTGGGTTCTAACCTGTTGCCT (site TCCCATCCTAG) | 0.03 |
| TCCCATTCTTGGGTTCTAACCTGTTGCCT (site TCCCATGCTAG) | 0.0488 |
| TCCCATTCTTGGGTTCTAACCTGTTGCCT (site TCCCATTCTAG) | 0.115 |
| TCCCGAGCTTGGGTTCTAACCTGTTGCCT (site TCCCGAACTAG) | 0.435 |
| TCCCGAGCTTGGGTTCTAACCTGTTGCCT (site TCCCGACCTAG) | 0 |
| TCCCGAGCTTGGGTTCTAACCTGTTGCCT (site TCCCGAGCTAG) | 1.55 |
| TCCCGAGCTTGGGTTCTAACCTGTTGCCT (site TCCCGATCTAG) | 0.119 |
| TCCGAAACTTGGGTTCTAACCTGTTGCAT (site TCCGAAACTAT) | 1.15 |
| TCCGAAACTTGGGTTCTAACCTGTTGCAT (site TCTGAAACTAG) | 0.0197 |
| TCCGAGCCTTGGGTTCTAACCTGTTGCAT (site TCCGAGCCTAC) | 0.228 |
| TCCGAGCCTTGGGTTCTAACCTGTTGCAT (site TCCGAGCCTAT) | 1.98 |
| TCCGCTCCTTGGGTTCTAACCTGTTGCCT (site TCCGCTACTAG) | 0.177 |
| TCCGCTCCTTGGGTTCTAACCTGTTGCCT (site TCCGCTCCTAG) | 0.323 |
| TCCGCTCCTTGGGTTCTAACCTGTTGCCT (site TCCGCTGCTAG) | 0.215 |
| TCCGCTCCTTGGGTTCTAACCTGTTGCCT (site TCCGCTTCTAG) | 0.0907 |
| TCCGTACCTTGGGTTCTAACCTGTTGCCG (site TCCGTACCTCG) | 0.814 |
| TCCGTACCTTGGGTTCTAACCTGTTGCCG (site TCCGTCCCTCA) | 0.0904 |
| TCCGTCTCTTGGGTTCTAACCTGTTGCCA (site TCCGTCTCTCG) | 0.233 |
| TCCGTCTCTTGGGTTCTAACCTGTTGCCA (site TCCGTCTCTTG) | 0.692 |
| TCCGTCTCTTGGGTTCTAACCTGTTGCCG (site TCCGTCTCTCG) | 1.13 |

| Sequence | recombinant barcode read abundance (log10) |
| --- | --- |
| TCCGTCTCTTGGGTTCTAACCTGTTGCCG (site TCCGTCTCTTG) | 0.0281 |
| TCCTAGTCTTGGGTTCTAACCTGTTGCCA (site GCCTAGTCTTG) | 0.405 |
| TCCTAGTCTTGGGTTCTAACCTGTTGCCA (site TCCTAGTCTTG) | 0.137 |
| TCCTTAGCTTGGGTTCTAACCTGTTGCCT (site TCATTCGCTAG) | 0.0127 |
| TCCTTAGCTTGGGTTCTAACCTGTTGCCT (site TCCTTAGCTAG) | 0.579 |
| TCGAAACCTTGGGTTCTAACCTGTTGCCT (site TCGAAACCTAG) | 0.625 |
| TCGAAACCTTGGGTTCTAACCTGTTGCCT (site TCGAACCCTAG) | 0.0112 |
| TCGAAACCTTGGGTTCTAACCTGTTGCCT (site TCGAAGCCTAG) | 0.132 |
| TCGAAACCTTGGGTTCTAACCTGTTGCCT (site TCGAATCCTAG) | 0.0362 |
| TCGAAGACTTGGGTTCTAACCTGTTGCCA (site CCGAAGACTAG) | 0.14 |
| TCGAAGACTTGGGTTCTAACCTGTTGCCA (site TCGAAGACTTG) | 0.177 |
| TCGAGTACTTGGGTTCTAACCTGTTGCCT (site TCGAGTACTAG) | 0.274 |
| TCGAGTACTTGGGTTCTAACCTGTTGCCT (site TCGAGTCCTAG) | 0.168 |
| TCGAGTACTTGGGTTCTAACCTGTTGCCT (site TCGAGTGCTAG) | 0.034 |
| TCGAGTACTTGGGTTCTAACCTGTTGCCT (site TCGAGTTCTAG) | 0.404 |
| TCGATGTCTTGGGTTCTAACCTGTTGCCT (site TCGAATTCTAG) | 0.174 |
| TCGATGTCTTGGGTTCTAACCTGTTGCCT (site TCGATGTCTAG) | 0.706 |
| TCGCAAGCTTGGGTTCTAACCTGTTGCCT (site TCGCAAGCTAG) | 0.559 |
| TCGCAAGCTTGGGTTCTAACCTGTTGCCT (site TCTCCAGCTAG) | 0.43 |
| TCGCACCCTTGGGTTCTAACCTGTTGCGA (site TCGAACCCTTC) | 1.28 |
| TCGCACCCTTGGGTTCTAACCTGTTGCGA (site TCGCACCCTTC) | 0.571 |
| TCGCACCCTTGGGTTCTAACCTGTTGCGA (site TCGGACCCTTC) | 0.369 |
| TCGCACCCTTGGGTTCTAACCTGTTGCGA (site TCGTACCCTTC) | 0.514 |
| TCGCACGCTTGGGTTCTAACCTGTTGCCT (site TCGCACGCTAG) | 0.205 |
| TCGCACGCTTGGGTTCTAACCTGTTGCCT (site TCTCACGCTAG) | 0.541 |
